Data taken from article PMC10564737, “Structure-based design of a phosphotyrosine-masked covalent ligand targeting the E3 ligase SOCS2” (Nature Communications, 2023).

How the values were obtained:
SOCS2 Cys111 = target: T1, SOCS2 Cys111 (Homo sapiens, UniProt O14508); assay: SOCS2 immunoprecipitation and tandem MS (LC-MS/MS) of Cys111 peptide from treated K562 cells; assay type: cell-based; details: 6 h
T1 construct: MN551 covalently modifies cellular SOCS2 specifically at Cys111; endogenous in cells; host or cells: K562
T1 sequence (O14508 1-198): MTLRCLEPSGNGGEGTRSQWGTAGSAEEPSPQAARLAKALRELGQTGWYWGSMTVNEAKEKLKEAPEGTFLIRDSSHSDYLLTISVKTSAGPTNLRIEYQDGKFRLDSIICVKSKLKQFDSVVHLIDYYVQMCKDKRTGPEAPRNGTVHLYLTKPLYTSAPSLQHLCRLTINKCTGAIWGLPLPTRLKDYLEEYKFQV
Experimental: While CETSA and GHR pulldown experiments allow ascertaining the engagement of cellular SOCS2, distinguishing reversible binding from covalent binding remains a challenge. […] Moreover, the MS2 spectra for cells treated with 1 μM and 10 μM MN714 show a dose-dependent increase in levels of SOCS2 modification (Fig. 6e).
Cells were treated with either DMSO, 1 μM, or 10 μM MN714 for 6 h in 10 cm dish. Cells were harvested, washed with PBS, and lysed in […] RIPA buffer (Sigma-R0278: 150 mM NaCl, 1.0% IGEPAL® CA-630, 0.5% sodium deoxycholate, 0.1% SDS, 50 mM Tris, pH 8.0, and freshly added protease inhibitor tablet). Cellular debris was pelleted, the lysate supernatant was aspirated to a new tube and subjected to immunoprecipitation at 4 °C for 4 h with 3 μl anti-SOCS2 antibody coupled to 20 μl of protein A/G beads (abcam- ab109245). The beads were washed 3 times with 1× RIPA buffer and precipitated protein samples were eluted with 1 × NuPAGE™ LDS sample buffer, and 20% of the sample was analyzed by SDS-PAGE and western blot using a rabbit anti-SOCS2 primary antibody (abcam) and IRDye® 800CW donkey anti-rabbit IgG secondary antibody. The remaining precipitated protein samples were processed for mass-spec analysis. In brief, the samples were reduced with DTT alkylated with Iodoacetamide and subjected to the SP3 protein clean-up procedure. […]
LC-MS analysis was performed by the FingerPrints Proteomics Facility (University of Dundee). Analysis of peptide readout was performed on a Q-Exactive™ plus, Mass Spectrometer (Thermo Scientific) coupled to a Dionex Ultimate 3000 RS (Thermo Scientific). […]
MS raw data were analyzed using MaxQuant software, standard settings were used with the following changes and additions: The modified FASTA databases with individual substitutions of cysteines with the placeholder “U” (selenocysteine) were used[67]. […] The relative intensity of peptide […] without and with a modified cysteine (placeholder “U”) were analyzed by normalizing to total intensity of SOCS2 protein.

SBC2 = target: T2, SBC2 (Homo sapiens, UniProt O14508); assay: Isothermal titration calorimetry (ITC), direct titration; assay type: binding
T2 construct: SOCS2 (amino acids 32–198); His6 (N, cleaved yes); made in house; host or cells: E. coli BL21(DE3)
T2 sequence (Q15370 1-104 partner limits assumed, one chain of several): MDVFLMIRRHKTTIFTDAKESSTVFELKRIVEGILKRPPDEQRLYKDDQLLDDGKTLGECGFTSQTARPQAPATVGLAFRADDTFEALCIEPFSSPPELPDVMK
T2 sequence (Q15369 17-112 partner limits assumed, one chain of several): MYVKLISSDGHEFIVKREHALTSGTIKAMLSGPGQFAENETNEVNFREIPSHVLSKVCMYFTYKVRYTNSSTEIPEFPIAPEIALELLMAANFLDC
Experimental: Experiments were performed with ITC200 instrument (Malvern) in 100 mM HEPES pH 7.5, 50 mM NaCl, 0.5 mM TCEP at 298 K. The ITC titration consisted of 0.4 μl initial injection (discarded during data analysis) followed by 19 of 2 μl injections at 120 s interval between injections. 1 mM of the ligands in 2–4% DMSO were titrated into 100 μM SBC2. […] Binding data was subtracted from a control titration where ligand was titrated into buffer, and fitted using a one-set-of-site binding model to obtain dissociation constant (Kd), binding enthalpy (ΔH), and stoichiometry (N) using MicroCal PEAQ-ITC Analysis Software1.1.0.1262 and MicroCal ITC-ORIGIN Analysis Software 7.0 (Malvern).

Row | Compound | relative intensity of modified peptide LDSIIUVK, normalised to total SOCS2 levels (SOCS2 Cys111; 1uM) | relative intensity of unmodified peptide LDSIICVK, normalised to total SOCS2 levels (SOCS2 Cys111; 1uM) | relative intensity of unmodified peptide LDSIICVK, normalised to total SOCS2 levels (SOCS2 Cys111; 10uM) | Ki (SBC2) [nM] | Kd (SBC2; ITC KD, direct ITC, 298 K) [nM]
1 | CC(C)(C)C(=O)OCOP(=O)(OCOC(=O)C(C)(C)C)Oc1ccc(C[C@H](NC(=O)Cc2ccc(F)cc2)C(=O)NCc2cccc(NC(=O)CCl)c2)cc1 [MN714] | 24.9386 | 85.6581 | 0 | – | –
2 | O=C(CCl)Nc1cccc(CNC(=O)[C@H](Cc2ccc(OP(=O)(O)O)cc2)NC(=O)Cc2ccc(F)cc2)c1 [MN551] | – | – | – | 2200 | 2180 ± 600
